Experimental data reported in PubChem BioAssay AID256 (DTP/NCI, 2004).
“And” between values parts separate entries of the source, which are not always exact repeats. Equal entries are not always repeated. Inconclusive results and toxic doses are left out. The calls were made as follows: active = survival T/C of 150% or more; inactive = T/C below 125% in these data.

System: CD2F1 mice, L1210 leukemia ip, survival T/C
Test: NCI In Vivo Anticancer Drug Screen. Data for tumor model L1210 Leukemia (intraperitoneal) in CD2F1 (CDF1) mice
Conditions: higher = longer survival
Procedure, shortened: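 Ratio T/C, where T is the treated-group value and C the vehicle-dosed control value, from mice implanted with a transplantable tumor.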

[1] = endpoint: mean survival time, dose: 100.0 mg/kg/injection, schedule: Q01DX009 (ip), vehicle: saline with Tween-80
[2] = endpoint: mean survival time, dose: 200.0 mg/kg/injection, schedule: Q01DX009 (ip), vehicle: saline with Tween-80
[3] = endpoint: mean survival time, dose: 50.0 mg/kg/injection, schedule: Q04DX003 (ip), vehicle: saline
[4] = endpoint: mean survival time, dose: 100.0 mg/kg/injection, schedule: Q04DX003 (ip), vehicle: saline
[5] = endpoint: mean survival time, dose: 100.0 mg/kg/injection, schedule: Q04DX003 (ip), vehicle: saline with Tween-80
[6] = endpoint: mean survival time, dose: 200.0 mg/kg/injection, schedule: Q04DX003 (ip), vehicle: saline with Tween-80
[7] = endpoint: mean survival time, dose: 400.0 mg/kg/injection, schedule: Q04DX003 (ip), vehicle: saline with Tween-80
[8] = endpoint: mean survival time, dose: 100.0 mg/kg/injection, schedule: Q01DX009 (ip), vehicle: saline
[9] = endpoint: mean survival time, dose: 200.0 mg/kg/injection, schedule: Q01DX009 (ip), vehicle: saline
[10] = endpoint: mean survival time, dose: 200.0 mg/kg/injection, schedule: Q04DX003 (ip), vehicle: saline
[11] = endpoint: mean survival time, dose: 400.0 mg/kg/injection, schedule: Q04DX003 (ip), vehicle: saline
[12] = endpoint: mean survival time, dose: 50.0 mg/kg/injection, schedule: Q01DX009 (ip), vehicle: saline

Measured: T/C

C=C1CC[C@]2(C)CC[C@]3(C)C4=CC=C5C(=CC(=O)C(O)=C5C)[C@]4(C)CC[C@@]3(C)[C@@H]2C1
inactive: endpoint: mean survival time, dose: 0.12 mg/kg/injection, schedule: Q01DX009 (ip), vehicle: saline with Tween-80 103 % of control | endpoint: mean survival time, dose: 0.25 mg/kg/injection, schedule: Q01DX009 (ip), vehicle: saline with Tween-80 102 % of control | endpoint: mean survival time, dose: 0.5 mg/kg/injection, schedule: Q01DX009 (ip), vehicle: saline with Tween-80 108 % of control | endpoint: mean survival time, dose: 1.0 mg/kg/injection, schedule: Q01DX009 (ip), vehicle: saline with Tween-80 86 % of control

COc1ccc(NC(=S)/C(=C(\[O-])c2ccc([N+](=O)[O-])cc2)[n+]2ccc(C(C)C)cc2)cc1
inactive: [1] 91 % of control | [2] 97 % of control

CCOC(=O)CCl
inactive: endpoint: mean survival time, dose: 100.0 mg/kg/injection, schedule: Q04DX003 (ip), vehicle: other 95 % of control | endpoint: mean survival time, dose: 200.0 mg/kg/injection, schedule: Q04DX003 (ip), vehicle: other 90 % of control

NNC(=O)COc1ccccc1
inactive: endpoint: mean survival time, dose: 25.0 mg/kg/injection, schedule: Q04DX003 (ip), vehicle: saline 101 % of control | [3] 101 % of control | [4] 103 % of control

CCCCCC1C(O)C(=O)OC1(C(F)(F)F)C(F)(F)F (centres undefined)
inactive: endpoint: mean survival time, dose: 100.0 mg/kg/injection, schedule: Q04DX003 (ip), vehicle: Klucel (hydroxypropylcellulose) (HPC) 91 % of control | endpoint: mean survival time, dose: 200.0 mg/kg/injection, schedule: Q04DX003 (ip), vehicle: Klucel (hydroxypropylcellulose) (HPC) 94 % of control | endpoint: mean survival time, dose: 400.0 mg/kg/injection, schedule: Q04DX003 (ip), vehicle: Klucel (hydroxypropylcellulose) (HPC) 96 % of control

Cc1c2cnccc2c(C)c2c1c1ccccc1n2CCNCc1ccccc1
inactive: [5] 105 % of control | [6] 107 % of control

CN(C)CC1CCCCCC(CN(C)C)C1=O (centres undefined)
inactive: endpoint: mean survival time, dose: 75.0 mg/kg/injection, schedule: Q01DX001 (ip), vehicle: other 102 % of control | endpoint: mean survival time, dose: 150.0 mg/kg/injection, schedule: Q01DX001 (ip), vehicle: other 106 % of control

COc1ccc(C(O)c2ncccc2C)cc1OC (centres undefined)
inactive: endpoint: mean survival time, dose: 12.5 mg/kg/injection, schedule: Q01DX009 (ip), vehicle: water 100 % of control | endpoint: mean survival time, dose: 25.0 mg/kg/injection, schedule: Q01DX009 (ip), vehicle: water 98 % of control | endpoint: mean survival time, dose: 50.0 mg/kg/injection, schedule: Q01DX009 (ip), vehicle: water 104 % of control | endpoint: mean survival time, dose: 100.0 mg/kg/injection, schedule: Q01DX009 (ip), vehicle: water 100 % of control | endpoint: mean survival time, dose: 200.0 mg/kg/injection, schedule: Q01DX009 (ip), vehicle: water 95 % of control

O=C(Nc1ccccc1[N+](=O)[O-])c1ccc(C(=O)Nc2ccccc2[N+](=O)[O-])cc1
inactive: endpoint: mean survival time, dose: 75.0 mg/kg/injection, schedule: Q01DX001 (ip), vehicle: saline 87 % of control | endpoint: mean survival time, dose: 150.0 mg/kg/injection, schedule: Q01DX001 (ip), vehicle: saline 96 % of control | endpoint: mean survival time, dose: 300.0 mg/kg/injection, schedule: Q01DX001 (ip), vehicle: saline 91 % of control

O=C1/C(=C/c2ccccc2)CCCC1/C=C/c1ccccc1 (centres undefined)
inactive: [5] 100 % of control | [6] 100 % of control | [7] 97 % of control

CCOC(=O)CC(=O)N(CC)CC
inactive: [8] 98 % of control | [4] 99 % of control | [9] 93 % of control | [10] 95 % of control | endpoint: mean survival time, dose: 400.0 mg/kg/injection, schedule: Q01DX009 (ip), vehicle: saline 96 % of control | [11] 108 % of control

O=C(c1ccc(F)cc1)c1ccccc1Cl
inactive: [1] 102 % of control | [5] 105 % of control | [2] 97 % of control | [6] 98 % of control | endpoint: mean survival time, dose: 400.0 mg/kg/injection, schedule: Q01DX009 (ip), vehicle: saline with Tween-80 97 % of control | [7] 98 % of control

C[C@]12CC[C@@H]3c4ccc(O)cc4CC[C@H]3[C@@H]1CC[C@@H]2O
inactive: endpoint: mean survival time, dose: 6.25 mg/kg/injection, schedule: Q01DX009 (ip), vehicle: Klucel (hydroxypropylcellulose) (HPC) 94 % of control | endpoint: mean survival time, dose: 12.5 mg/kg/injection, schedule: Q01DX009 (ip), vehicle: Klucel (hydroxypropylcellulose) (HPC) 100 % of control | endpoint: mean survival time, dose: 25.0 mg/kg/injection, schedule: Q01DX009 (ip), vehicle: Klucel (hydroxypropylcellulose) (HPC) 97 % of control | endpoint: mean survival time, dose: 50.0 mg/kg/injection, schedule: Q01DX009 (ip), vehicle: Klucel (hydroxypropylcellulose) (HPC) 96 % of control | endpoint: mean survival time, dose: 100.0 mg/kg/injection, schedule: Q01DX009 (ip), vehicle: Klucel (hydroxypropylcellulose) (HPC) 105 % of control | endpoint: mean survival time, dose: 200.0 mg/kg/injection, schedule: Q01DX009 (ip), vehicle: Klucel (hydroxypropylcellulose) (HPC) 96 % of control

Nc1c(Cl)c(Cl)c(Br)c(Cl)c1Cl
inactive: [5] 91 % of control | [6] 105 % of control | [7] 97 % of control

CCC(=O)C(C)N(C)C1CCCCC1 (centres undefined)
inactive: [4] 100 % of control | [10] 102 % of control | [11] 96 % of control

CCOC1(C(C)C)CCC(C)/C(=C\c2ccc([N+](=O)[O-])cc2)C1=O (centres undefined)
inactive: [5] 93 % of control | [6] 93 % of control | [7] 96 % of control

Nc1ncnc2[nH]ncc12
inactive: endpoint: median survival time, dose: 3.0 mg/kg/injection, schedule: Q01DX009 (ip), vehicle: saline 100 % of control and 105 % of control | endpoint: median survival time, dose: 6.0 mg/kg/injection, schedule: Q01DX009 (ip), vehicle: saline 114 % of control and 111 % of control | endpoint: median survival time, dose: 12.0 mg/kg/injection, schedule: Q01DX009 (ip), vehicle: saline 121 % of control and 111 % of control

COc1cc2cc3c4cc(OC)c(OC)cc4cc[n+]3c(C)c2cc1OC (tested in a mixture with another compound)
inactive: [12] 95 % of control | [3] 91 % of control | [10] 122 % of control | [7] 88 % of control

C=C(C#N)C(=O)OCC(CC)CC.C=C(C#N)C(=O)OCC(CC)CC.CS(C)=O.CS(C)=O.Nc1c(N=Nc2ccc(-c3ccc(N=Nc4cc(S(=O)(=O)[O-])c5ccccc5c4N)cc3)cc2)cc(S(=O)(=O)[O-])c2ccccc12.[Pt+2]
inactive: endpoint: median survival time, dose: 3.12 mg/kg/injection, schedule: Q04DX003 (ip), vehicle: saline with Tween-80 95 % of control | endpoint: median survival time, dose: 6.25 mg/kg/injection, schedule: Q04DX003 (ip), vehicle: saline with Tween-80 106 % of control | endpoint: median survival time, dose: 12.5 mg/kg/injection, schedule: Q04DX003 (ip), vehicle: saline with Tween-80 108 % of control | endpoint: median survival time, dose: 25.0 mg/kg/injection, schedule: Q04DX003 (ip), vehicle: saline with Tween-80 100 % of control | endpoint: median survival time, dose: 50.0 mg/kg/injection, schedule: Q04DX003 (ip), vehicle: saline with Tween-80 97 % of control | endpoint: median survival time, dose: 100.0 mg/kg/injection, schedule: Q04DX003 (ip), vehicle: saline with Tween-80 98 % of control | endpoint: median survival time, dose: 200.0 mg/kg/injection, schedule: Q04DX003 (ip), vehicle: saline with Tween-80 90 % of control

C=CCN(C(C)=O)c1nnc(N(CC=C)C(C)=O)s1
inactive: endpoint: mean survival time, dose: 100.0 mg/kg/injection, schedule: Q01DX001 (ip), vehicle: saline with Tween-80 100 % of control | endpoint: mean survival time, dose: 200.0 mg/kg/injection, schedule: Q01DX001 (ip), vehicle: saline with Tween-80 100 % of control | endpoint: mean survival time, dose: 400.0 mg/kg/injection, schedule: Q01DX001 (ip), vehicle: saline with Tween-80 100 % of control

Brc1ccc([Si](c2ccccc2)(c2ccccc2)c2ccc(-c3ccccc3)cc2)cc1
inactive: endpoint: mean survival time, dose: 100.0 mg/kg/injection, schedule: Q01DX009 (ip), vehicle: other 102 % of control | endpoint: mean survival time, dose: 200.0 mg/kg/injection, schedule: Q01DX009 (ip), vehicle: other 96 % of control | endpoint: mean survival time, dose: 400.0 mg/kg/injection, schedule: Q01DX009 (ip), vehicle: other 96 % of control

C=CCNC1CCS(=O)(=O)C1 (centres undefined)
inactive: [12] 104 % of control | [8] 97 % of control | [9] 104 % of control
